Results published in patent US20200188237A1, “ENDODONTIC FORMULATIONS CONTAINING CYSTEAMINE AND CYSTEAMINE DERIVATIVES AND USES THEREOF” (University of Florida Research Foundation, Inc., priority 2017, published 2020).

Assays:
[1] = tested on: Fusobacterium nucleatum (ATCC10953); assay: Bacterial removal from root canals of inoculated extracted human mandibular molars, instrumentation/irrigation, qPCR; format: cell-based; details: pre- vs post-instrumentation/irrigation, human mandibular molars incubated 14 days anaerobic
Protocol: (§1) Forty human mandibular molars were accessed, sterilized, inoculated with Enterococcus faecalis (OG1RF) and Fusobacterium nucleatum (ATCC10953), and incubated for 14 days under anaerobic conditions. Teeth were divided into 3 groups (n=10): 1) 6.15% NaOCl, 2) 8.25% NaOCl, 3) Cysteamine. Controls (n=5): negative without inoculation and positive without instrumentation/irrigation. Mesiobuccal and mesiolingual canals were instrumented using Vortex Blue to 30/.04 and the corresponding irrigant, followed by neutralization with EDTA and saline. Samples were collected pre- and post-instrumentation/irrigation. Total DNA was extracted and quantitative real-time PCR was performed. Data were analyzed using one-way ANOVA with Bonferroni's multiple comparisons (p<0.05). See FIG. 1 for a schematic representation of the methods.

[2] = tested on: Enterococcus faecalis (OG1RF); assay: as above; format: cell-based; details: pre- vs post-instrumentation/irrigation, human mandibular molars incubated 14 days anaerobic
Protocol: as §1

SMILES | percent reduction in Fusobacterium nucleatum ([1]; Cysteamine irrigant) [%] | percent reduction in Enterococcus faecalis ([2]; Cysteamine irrigant) [%] | percent reduction in Fusobacterium nucleatum ([1]; 6.15% NaOCl irrigant) [%] | percent reduction in Fusobacterium nucleatum ([1]; 8.25% NaOCl irrigant) [%] | percent reduction in Enterococcus faecalis ([2]; 6.15% NaOCl irrigant) [%] | percent reduction in Enterococcus faecalis ([2]; 8.25% NaOCl irrigant) [%]
NCCS [Cysteamine] | 68.5 | 60 |  |  |  | 
OCl [NaOCl, sodium hypochlorite] |  |  | 59.9 | 63.4 | 49 | 54
